These are literature values, as cited in US6632929B1, “Avidin derivatives and uses thereof” (Yeda Research and Development Co. LTD, priority 1998, dated 2003).

Data set [1] addresses T1, avidin (Gallus gallus, UniProt P02701).
T1 construct: Egg-white avidin was provided by STC laboratories (Winnipeg, Canada); purchased STC laboratories (Winnipeg, Canada); host or cells: egg white
As to conditions: non-covalent, same biotin-binding site (Green, 1965); read-out: affinity; cited from earlier work.

The target of another data set is streptavidin (Streptomyces avidinii, UniProt P22629). The conditions noted are these: streptavidin-biotin complex; cited from earlier work.
Sequence of streptavidin (P22629 25-183): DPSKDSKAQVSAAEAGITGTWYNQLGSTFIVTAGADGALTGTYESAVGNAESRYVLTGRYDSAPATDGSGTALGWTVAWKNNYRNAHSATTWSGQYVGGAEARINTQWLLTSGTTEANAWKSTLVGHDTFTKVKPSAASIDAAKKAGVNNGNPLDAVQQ
For data set [2], the target named is T1, avidin. As to conditions: avidin-biotin complex; cited from earlier work.

T1 sequence (P02701 25-152): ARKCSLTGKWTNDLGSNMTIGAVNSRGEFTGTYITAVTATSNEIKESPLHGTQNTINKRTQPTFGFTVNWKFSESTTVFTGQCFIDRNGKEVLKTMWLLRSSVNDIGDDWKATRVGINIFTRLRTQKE

As for `O=C(O)c1ccccc1N=Nc1ccc(O)cc1` [4′-hydroxyazobenzene-2-carboxylic acid], the Kd on avidin [1] is 1 to 10 µM.
Take `O=C(O)CCCC[C@@H]1SC[C@@H]2NC(=O)N[C@@H]21` [biotin]: the results for the affinity constant on streptavidin and on avidin [2] were 2.5e+13 M⁻¹ and 1.6e+15 M⁻¹, respectively.
